# Several values for one entry are separate records, joined by “and”; a condition that tells them apart may be missing. Equal entries are not always repeated.
# Legend:
# Format in all cases: cell-based
# [1] = molecular target: T1, WT Shaker KV channel (ShH4IR) (Drosophila melanogaster, UniProt P08510, DEL6-46); test: Two-electrode voltage clamp of Shaker KV channels expressed in Xenopus laevis oocytes: WT
# T1 construct: expressed in transfected cells; host or cells: Xenopus laevis oocytes (RNA injection)
# Excerpt: (§1) The Shaker H4 channel (GenBank accession no. NM_167595.3; [Kamb et al., 1987]), with removed N-type inactivation due to a Δ6-46 deletion (ShH4IR, in Bluescript II KS(+) plasmid; [Hoshi et al., 1990]), is referred to as the WT Shaker KV channel. […] Therefore, we specifically refer to the two added arginines just outside S4 (M356R/A359R) as the 2R motif. Mutations were introduced with site-directed mutagenesis and verified with sequencing as described previously ([Börjesson et al., 2010]). RNA injection and oocyte handling were performed as before ([Börjesson et al., 2010]; [Ottosson et al., 2015]). All animal experiments were approved by the Linköping’s local Animal Care and Use Committee.
# (§2) Electrophysiological experiments were made 1–6 d after RNA injection. K^+ currents were measured with the two-electrode voltage-clamp technique (GeneClamp 500B amplifier; Axon Instruments) as described previously ([Ottosson et al., 2015]; [Silverå Ejneby et al., 2018]). The amplifier’s leak compensation was used, and the currents were low-pass filtered at 5 kHz. The control solution contained (in mM) 88 NaCl, 1 KCl, 15 HEPES, 0.4 CaCl2, and 0.8 MgCl2, and pH was set with NaOH. All experiments were made at room temperature (20°C–23°C). The holding potential was set to −80 mV (or −100 mV if the mutant was not fully closed at −80 mV).
# (§3) Stock solutions were stored at −20°C and diluted in control solution just before experiments. The test solution was added to the oocyte bath manually with a syringe. […] To make sure all Wu50 molecules were negatively charged, the pH of the control solution was set to 9.0 before the experiments.
# (§4) The conductance, G(V), was calculated as G(V)=I/(V−VK), (1) where I is the steady-state current measured at the end of each test-voltage sweep (100 ms after onset; Clampfit 10.5; Molecular Devices), V is the absolute membrane voltage, and VK is the reversal potential for K^+ ions (set to −80 mV). The conductance was fitted with a Boltzmann equation (GraphPad Prism 5; GraphPad Software, Inc.) GK(V)=GMAX/{1+exp[(V½−V)/s]}, (2) where GMAX is the amplitude (maximal conductance) of the curve, V is the absolute membrane voltage, V1/2 is the midpoint, and s is the slope. The resin-acid–induced G(V) shift was calculated as V1/2 (compound) − V1/2 (control). The relative change in GMAX was calculated as GMAX (compound) / GMAX (control). The concentration dependence for the G(V) shifts was calculated as ΔV= ΔVMAX/(1 +EC50/c), (3) where ΔV is the voltage shift, ΔVMAX is the voltage shift at saturating concentration, c is the concentration of the tested compound, and EC50 is the concentration at which half-maximum response occurs.
# [2] = molecular target: T2, Shaker KV channel with the 2R motif (M356R/A359R) (Drosophila melanogaster, UniProt P08510, A359R/DEL6-46/M356R); test: Two-electrode voltage clamp in Xenopus oocytes: 2R motif channel
# T2 construct: expressed in transfected cells; host or cells: Xenopus laevis oocytes (RNA injection)
# Excerpt: as §1, §2, §3, §4
# [3] = molecular target: T3, Shaker KV channel R362Q (Drosophila melanogaster, UniProt P08510, DEL6-46/R362Q); test: Two-electrode voltage clamp in Xenopus oocytes: R362Q; details: 100 μM, pH 9.0, R362Q
# T3 construct: expressed in transfected cells; host or cells: Xenopus laevis oocytes (RNA injection)
# Excerpt: (§5) The Shaker H4 channel (GenBank accession no. NM_167595.3; [Kamb et al., 1987]), with removed N-type inactivation due to a Δ6-46 deletion (ShH4IR, in Bluescript II KS(+) plasmid; [Hoshi et al., 1990]), is referred to as the WT Shaker KV channel. Addition of two positively charged arginines (M356R/A359R) at the extracellular top of the voltage sensor increases the effect of charged lipophilic compounds ([Ottosson et al., 2014], [2015], [2017]). […] However, for the resin-acid derivatives studied in the present investigation, R362 reduced the effect. Therefore, we specifically refer to the two added arginines just outside S4 (M356R/A359R) as the 2R motif. Mutations were introduced with site-directed mutagenesis and verified with sequencing as described previously ([Börjesson et al., 2010]). RNA injection and oocyte handling were performed as before ([Börjesson et al., 2010]; [Ottosson et al., 2015]). All animal experiments were approved by the Linköping’s local Animal Care and Use Committee.
# (§6) Electrophysiological experiments were made 1–6 d after RNA injection. K^+ currents were measured with the two-electrode voltage-clamp technique (GeneClamp 500B amplifier; Axon Instruments) as described previously ([Ottosson et al., 2015]; [Silverå Ejneby et al., 2018]). […]
# as §4, with “The conductance was fitted with a Boltzmann equation (GraphPad Prism 5; GraphPad Software, Inc.) GK(V)=GMAX/{1+exp[(V½−V)/s]}, (2) where GMAX is the amplitude (maximal conductance) of the curve, V is the absolute membrane voltage, V1/2 is the midpoint, and s is the slope.” left out
# [4] = molecular target: T4, Shaker KV channel R362Q/W454A (Drosophila melanogaster, UniProt P08510, DEL6-46/R362Q/W454A); test: Two-electrode voltage clamp in Xenopus oocytes: R362Q/W454A; details: 100 μM, pH 9.0, R362Q/W454A
# T4 construct: expressed in transfected cells; host or cells: Xenopus laevis oocytes (RNA injection)
# Excerpt: as §5, with “Mutations were introduced with site-directed mutagenesis and verified with sequencing as described previously ([Börjesson et al., 2010]). RNA injection and oocyte handling were performed as before ([Börjesson et al., 2010]; [Ottosson et al., 2015]). All animal experiments were approved by the Linköping’s local Animal Care and Use Committee.” left out
# as §6
# (§7) The conductance, G(V), was calculated as G(V)=I/(V−VK), (1) where I is the steady-state current measured at the end of each test-voltage sweep (100 ms after onset; Clampfit 10.5; Molecular Devices), V is the absolute membrane voltage, and VK is the reversal potential for K^+ ions (set to −80 mV). […] The resin-acid–induced G(V) shift was calculated as V1/2 (compound) − V1/2 (control). The relative change in GMAX was calculated as GMAX (compound) / GMAX (control). […]
# [5] = molecular target: T5, Shaker KV channel R362Q/W454A/F416A (Drosophila melanogaster, UniProt P08510, DEL6-46/F416A/R362Q/W454A); test: Two-electrode voltage clamp in Xenopus oocytes: R362Q/W454A/F416A; details: 100 μM
# T5 construct: expressed in transfected cells; host or cells: Xenopus laevis oocytes (RNA injection)
# Excerpt: as §5, §6
# as §4, with “The conductance was fitted with a Boltzmann equation (GraphPad Prism 5; GraphPad Software, Inc.) GK(V)=GMAX/{1+exp[(V½−V)/s]}, (2) where GMAX is the amplitude (maximal conductance) of the curve, V is the absolute membrane voltage, V1/2 is the midpoint, and s is the slope.” left out
# [6] = molecular target: T6, Shaker KV channel R362Q/R365Q/W454A/F280I (Drosophila melanogaster, UniProt P08510, DEL6-46/F280I/R362Q/R365Q/W454A); test: Two-electrode voltage clamp in Xenopus oocytes: R362Q/R365Q/W454A/F280I; details: 100 μM, pH 9.0, R362Q/R365Q/W454A/F280I
# T6 construct: expressed in transfected cells; host or cells: Xenopus laevis oocytes (RNA injection)
# Excerpt: as §5, with “Mutations were introduced with site-directed mutagenesis and verified with sequencing as described previously ([Börjesson et al., 2010]). RNA injection and oocyte handling were performed as before ([Börjesson et al., 2010]; [Ottosson et al., 2015]). All animal experiments were approved by the Linköping’s local Animal Care and Use Committee.” left out
# as §6, §7
# [7] = 100 μM, pH 9.0, M356R/A359R (=2R)
# T1 sequence (P08510 other isoform, or with tags, fused parts or gaps DEL6-46): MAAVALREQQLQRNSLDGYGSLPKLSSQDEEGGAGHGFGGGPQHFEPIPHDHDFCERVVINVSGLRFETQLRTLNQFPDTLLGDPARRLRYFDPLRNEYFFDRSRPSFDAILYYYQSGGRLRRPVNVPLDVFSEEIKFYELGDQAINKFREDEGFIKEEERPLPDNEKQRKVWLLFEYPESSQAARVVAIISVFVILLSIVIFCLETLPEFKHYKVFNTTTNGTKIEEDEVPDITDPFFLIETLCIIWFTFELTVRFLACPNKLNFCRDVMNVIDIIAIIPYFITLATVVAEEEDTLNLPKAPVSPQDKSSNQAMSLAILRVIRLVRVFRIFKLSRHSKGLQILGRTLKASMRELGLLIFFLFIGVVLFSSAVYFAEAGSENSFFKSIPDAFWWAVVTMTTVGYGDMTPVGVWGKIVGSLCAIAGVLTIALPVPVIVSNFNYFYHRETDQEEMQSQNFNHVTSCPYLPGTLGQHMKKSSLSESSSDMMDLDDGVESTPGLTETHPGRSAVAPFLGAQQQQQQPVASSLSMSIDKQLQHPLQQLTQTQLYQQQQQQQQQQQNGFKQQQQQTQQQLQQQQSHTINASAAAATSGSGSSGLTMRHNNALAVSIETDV
# T4 sequence (P08510 with tags, fused parts or gaps DEL6-46/R362Q/W454A): as the sequence (P08510 other isoform, or with tags, fused parts or gaps DEL6-46) above, with R321Q, W413A counted along it
# T3 sequence (P08510 other isoform, or with tags, fused parts or gaps DEL6-46/R362Q): as the sequence (P08510 other isoform, or with tags, fused parts or gaps DEL6-46) above, with R321Q counted along it
# T2 sequence (P08510 other isoform, or with tags, fused parts or gaps DEL6-46/M356R/A359R): as the sequence (P08510 other isoform, or with tags, fused parts or gaps DEL6-46) above, with M315R, A318R counted along it
# T5 sequence (P08510 other isoform, or with tags, fused parts or gaps DEL6-46/R362Q/F416A/W454A): as the sequence (P08510 other isoform, or with tags, fused parts or gaps DEL6-46) above, with R321Q, F375A, W413A counted along it
# T6 sequence (P08510 other isoform, or with tags, fused parts or gaps DEL6-46/F280I/R362Q/R365Q/W454A): as the sequence (P08510 other isoform, or with tags, fused parts or gaps DEL6-46) above, with F239I, R321Q, R324Q, W413A counted along it
smiles,measurement,setting,value
C[C@@]1(C(=O)O)CCC[C@]2(C)c3cc(Cl)c(Cl)c(Cl)c3CC[C@@H]12 [Wu50],ΔVG(V) (G(V) shift),"[1]; 100 μM, pH 9.0, WT",−25.5 ± 1.4 mV and -25.5 mV
same,GMAX (rel.),"[1]; 100 μM, pH 9.0, WT, GMAX (compound)/GMAX (control)",1.36 rel.
same,EC50,"[1]; WT, pH 9.0, concentration-response (Eq. 3), read-out: EC50 of the G(V) shift (apparent affinity)",29.1 ± 3.5 µM
same,"G(V) shift, representative recording (Fig. 1 D)","[2]; 100 µM, pH 9.0, 2R motif",−40.7 mV
same,GMAX (rel.),[2]; [7],1.58 rel.
same,ΔVG(V) (G(V) shift),[2]; [7],−40.0 ± 2.7 mV and -40.0 mV
same,Increase of the maximum G(V) shift by the 2R motif,"[2]; 2R motif versus WT, Wu50 pH 9.0, Wu161 and Wu181 pH 7.4",57%
same,ΔVMAX (maximum G(V) shift),"[2]; 2R motif, pH 9.0, concentration-response (Eq. 3)",−56.5 ± 2.6 mV
same,EC50,"[2]; 2R motif, pH 9.0, concentration-response (Eq. 3), read-out: EC50 of the G(V) shift (apparent affinity)",30 ± 5 µM
same,"Increase of the G(V) shift by the 2R motif, in the negative direction","[2]; magnitude depending on the background mutations, 100 μM, pH 9.0",4–32 mV
same,GMAX (rel.),[3],1.25 rel.
same,ΔVG(V) (G(V) shift),[3],−49.6 ± 1.2 mV and -49.6 mV
same,GMAX (rel.),[4],1.28 rel.
same,ΔVG(V) (G(V) shift),[4],−41.0 ± 4.4 mV and -41.0 mV
same,GMAX (rel.),"[5]; pH 9.0, R362Q/W454A/F416A",0.17 rel.
same,Reduction of GMAX,"[5]; R362Q/W454A/F416A, pH 9.0",83%
same,GMAX (rel.),[6],0.05 rel.

# From article PMC7944402, “Resin-acid derivatives bind to multiple sites on the voltage-sensor domain of the Shaker potassium channel” (The Journal of General Physiology, 2021)
